Experimental data reported in US8163748B2, “s-Triazine compounds, pharmaceutical compositions and method of using the same” (New York University, priority 2007, dated 2012).
In brackets after ≈: the same amount, converted by molar mass.

tested on: Bacillus subtilis (ATCC 6633); test: broth microdilution antibacterial testing; assay type: cell-based; conditions: Bacillus subtilis, ATCC6633

| Structure (SMILES) | MIC50 [µM] |
| --- | --- |
| NCCNc1nc(NC2CCCCCC2)nc(NC23CC4CC(CC(C4)C2)C3)n1 [e9 (Library 5)] | 5.9 (≈ 2.36 µg/mL) |
| CCCCN(CCCC)CCCNc1nc(NC23CC4CC(CC(C4)C2)C3)nc(N(CCCC)CCCC)n1 [Compound A9] | 4.4 (≈ 2.38 µg/mL) |
| CCCCN(CCCC)CCCNc1nc(NC2CCCCCCCCCCC2)nc(NC23CC4CC(CC(C4)C2)C3)n1 [A5 (Library 5)] | 15.9 (≈ 9.48 µg/mL) |
| CCN(CC)CCCNc1nc(NCc2ccccc2)nc(NC23CC4CC(CC(C4)C2)C3)n1 [Compound C1] | 10.6 (≈ 4.91 µg/mL) |
| CCCCN(CCCC)CCCNc1nc(NC23CC4CC(CC(C4)C2)C3)nc(N(CCC)CC2CC2)n1 [A10 (Library 5)] | 5 (≈ 2.63 µg/mL) |
| CN(C)CCNc1nc(NC2CCCCCC2)nc(NC23CC4CC(CC(C4)C2)C3)n1 [b9 (Library 5)] | 7 (≈ 2.99 µg/mL) |
| CCCCN(CCCC)CCCNc1nc(NC23CC4CC(CC(C4)C2)C3)nc(NC23CC4CC(CC(C4)C2)C3)n1 [A8 (Library 5)] | 39 (≈ 22 µg/mL) |
| NCCCNc1nc(NC2CCCCCC2)nc(NC23CC4CC(CC(C4)C2)C3)n1 [f9 (Library 5)] | 4.7 (≈ 1.94 µg/mL) |
| CCCCN(CCCC)CCCNc1nc(NC2CCC2)nc(NC23CC4CC(CC(C4)C2)C3)n1 [A2 (Library 5)] | 7.9 (≈ 3.82 µg/mL) |
| CCN(CC)CCNc1nc(NC2CCCCCC2)nc(NC23CC4CC(CC(C4)C2)C3)n1 [c9 (Library 5)] | 5.6 (≈ 2.55 µg/mL) |
| CCCCN(CCCC)CCCNc1nc(NC2CC3CCC2C3)nc(NC23CC4CC(CC(C4)C2)C3)n1 (stereo not drawn) [A6 (Library 5)] | 7.6 (≈ 3.98 µg/mL) |
| CCN(CC)CCCNc1nc(NCc2ccc3c(c2)OCO3)nc(NC23CC4CC(CC(C4)C2)C3)n1 [C4 (Library 5)] | 3.5 (≈ 1.78 µg/mL) |
| CN(C)CCCNc1nc(NC2CCCCCC2)nc(NC23CC4CC(CC(C4)C2)C3)n1 [d9 (Library 5)] | 5.7 (≈ 2.52 µg/mL) |
| CCCCN(CCCC)CCCNc1nc(NC2CC2)nc(NC23CC4CC(CC(C4)C2)C3)n1 [Compound A1] | 16.4 (≈ 7.7 µg/mL) |
| CN1CCCC1CCNc1nc(NC2CCCCCC2)nc(NC23CC4CC(CC(C4)C2)C3)n1 (stereo not drawn) [g9 (Library 5)] | 5.9 (≈ 2.76 µg/mL) |

same assay, conditions: library 5; ring size 12; B. subtilis

| Structure (SMILES) | activity decrease comparing to ring size 7 or 8 compounds [fold] |
| --- | --- |
| CCCCN(CCCC)CCCNc1nc(NC2CCCCCCCCCCC2)nc(NC23CC4CC(CC(C4)C2)C3)n1 [A5 (Library 5)] | ~8 |

same assay, conditions: library 5 compound used as control in dye leakage

| Structure (SMILES) | antimicrobial activity (in words) |
| --- | --- |
| CN(C)c1nc(NC2CCCCCC2)nc(NC23CC4CC(CC(C4)C2)C3)n1 [h9 (Library 5)] | little antimicrobial activity |

tested on: not listed separately; test: calcein dye leakage; assay type: biochemical; conditions: ampicillin 70 μM
Source text: FIG. 1 graphically depicts the results of the measurement of the ability of a triazine compound of the invention to induce leakage of calcein, entrapped within the interior of large unilamellar vesicles of model membrane POPG. The extent of leakage of encapsulated calcein was detected by its fluorescence at 515 nm, with 100% leakage calibrated by addition of 0.2% Triton X-100.
The method of preparation of dye-encapsulated vesicles has been reported in detail. Lasch, V.; Weissig, M. Brandl in Liposomes: a Practical Approach Eds.: Taylor, K. M. G.; Craig, D.Q.M. Oxford University Press, Oxford, 2003; pp. 10-12. The results are graphically presented in FIG. 1, which presents the results of calcein leakage induced by 1% Triton, C2 (50 μM), h9 (90 μM) and ampicillin (70 μM). The fraction of leakage was calculated from the fluorescence intensity at 515 nm, with 100% leakage calibrated by addition of 1% Triton X-100.

| Structure (SMILES) | calcein dye leakage (in words) |
| --- | --- |
| CC1(C)S[C@@H]2[C@H](NC(=O)[C@H](N)c3ccccc3)C(=O)N2[C@H]1C(=O)O [ampicillin] | neither ampicillin nor compound C2 caused dye leakage |
